Data set [1] concerns the target αvβ5 integrin (Homo sapiens, UniProt P06756+P18084). As to the kind of experiment: Inhibition of αvβ5-mediated cell attachment to vitronectin. Type of data set: cell-based. On the set-up: αvβ5-mediated attachment of HT-29 cells to vitronectin; endogenous in cells; host or cells: HT-29 cells; UCLA-P3 cells. From the text:
FIG. 12—αvβ5-mediated attachment of HT-29 cells to vitronectin.
(§1) Cell lines expressing different integrins were used to examine peptide inhibition of integrin function. A human melanoma cell line, C8161, a fibroblast cell line, WI-38, and an osteosarcoma cell line, MG-63 (described by Seftor et al., Canc. Res., 53:3411–3415 (1993); Vogel et al., J. Biol. Chem., 265:5934–5937 (1990); and Pytela et al. (1985), supra, respectively, each of which is incorporated herein by reference) attach to fibronectin through α5β1 integrin, as does B2/α27, a CHO cell line transfected with human α5. B2/C1, the control parental CHO line (Bauer et al., J. Cell. Biol. 116:477–487 (1992), which is incorporated herein by reference), attaches via […]. CHO cells C11 and NIH 3T3 cells express the endogenous Chinese hamster and mouse α5β1 integrins, respectively. The human melanoma cells, A375-M, attach to fibronectin through both α5β1 and α4β1 integrins (Mould et al., J. Biol. Chem. 265:4020–4024 (1990), which is incorporated herein by reference). CHO cell line B2/v7 express the αvβ1 integrin (Zhang et al., J. Cell. Biol. 122:235–242 (1993), which is incorporated herein by reference). The vitronectin-binding integrins αvβ1 and αvβ3 were assayed using the cell line HT-29 and IMR-90, respectively (Koivunen et al., J. Biol. Chem. 268: 20205–20210 (1993)).
Cell lines expressing fibronectin-binding integrins were used to determine peptide activities against these integrins in the cell attachment assay described by Ruoslahti et al., Meth. Enzymol., 144:803–831 (1982), which is incorporated herein by reference. Human plasma fibronectin was iodinated as described by Morla and Ruoslahti, J. Cell Biol., 118:421–429 (1992), which is incorporated herein by reference. Vitronectin was obtained from Telios Pharmaceuticals (San Diego, Calif.). […] Peptide was coated on plastic by incubating at 37° C. for 2 hours in phosphate buffered saline containing 0.25% glutaraldehyde to crosslink the peptide. Free binding sites on the plastic were blocked using BSA. Approximately 1×10^5 cells per well were allowed to attach for 1 hour in the presence or absence of competing peptides. Bound cells were quantitated by staining with 0.1% amido black.
Inhibition of cell attachment mediated by either fibronectin- or vitronectin-binding integrins was performed to determine peptide specificity in a biologically relevant system. The assays and cell lines were performed as described above. FIGS. 5 and 6 show the results of cell attachment mediated by the fibronectin binding integrins α5β1 and αvβ1.

The nature of data set [2]: Precipitation behaviour of the peptide in solution. The format is physicochemical. To be noted: neutral pH.
Data set [3] deals with T1, α5β1 integrin (Homo sapiens, UniProt P05556+P08648).
T1 construct: The αvβ3, αvβ5 and α5β1 integrins were isolated from human placental extracts; from tissue; host or cells: human placenta
T1 sequence (P08648 42-894 limits assumed): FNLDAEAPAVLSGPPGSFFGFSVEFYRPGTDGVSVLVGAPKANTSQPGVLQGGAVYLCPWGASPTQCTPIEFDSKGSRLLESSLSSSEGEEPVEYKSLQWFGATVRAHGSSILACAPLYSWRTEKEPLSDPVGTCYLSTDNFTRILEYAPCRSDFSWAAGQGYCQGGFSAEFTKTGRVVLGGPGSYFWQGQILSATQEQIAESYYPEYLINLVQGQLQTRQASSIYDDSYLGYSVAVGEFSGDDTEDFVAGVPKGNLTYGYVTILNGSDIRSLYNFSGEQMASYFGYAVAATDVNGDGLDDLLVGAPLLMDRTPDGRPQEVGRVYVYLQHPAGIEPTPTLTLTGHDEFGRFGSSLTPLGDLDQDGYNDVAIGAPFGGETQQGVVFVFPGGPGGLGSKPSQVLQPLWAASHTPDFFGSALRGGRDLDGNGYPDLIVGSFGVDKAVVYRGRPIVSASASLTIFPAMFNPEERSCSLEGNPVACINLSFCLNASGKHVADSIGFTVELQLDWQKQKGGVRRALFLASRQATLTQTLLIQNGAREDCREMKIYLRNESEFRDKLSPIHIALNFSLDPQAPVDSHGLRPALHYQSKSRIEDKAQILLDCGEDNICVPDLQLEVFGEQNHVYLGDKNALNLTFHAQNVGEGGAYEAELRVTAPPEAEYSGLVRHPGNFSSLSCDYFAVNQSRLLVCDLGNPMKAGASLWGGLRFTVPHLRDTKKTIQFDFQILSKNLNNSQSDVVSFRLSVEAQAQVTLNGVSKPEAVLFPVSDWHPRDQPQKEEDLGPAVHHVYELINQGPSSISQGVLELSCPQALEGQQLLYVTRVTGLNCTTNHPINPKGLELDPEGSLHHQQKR
T1 sequence (P08648 895-1049 partner limits assumed): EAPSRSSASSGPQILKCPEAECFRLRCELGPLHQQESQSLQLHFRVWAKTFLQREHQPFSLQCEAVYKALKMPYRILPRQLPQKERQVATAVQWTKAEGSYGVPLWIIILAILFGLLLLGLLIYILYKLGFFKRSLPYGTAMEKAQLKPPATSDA
T1 sequence (P05556 21-798): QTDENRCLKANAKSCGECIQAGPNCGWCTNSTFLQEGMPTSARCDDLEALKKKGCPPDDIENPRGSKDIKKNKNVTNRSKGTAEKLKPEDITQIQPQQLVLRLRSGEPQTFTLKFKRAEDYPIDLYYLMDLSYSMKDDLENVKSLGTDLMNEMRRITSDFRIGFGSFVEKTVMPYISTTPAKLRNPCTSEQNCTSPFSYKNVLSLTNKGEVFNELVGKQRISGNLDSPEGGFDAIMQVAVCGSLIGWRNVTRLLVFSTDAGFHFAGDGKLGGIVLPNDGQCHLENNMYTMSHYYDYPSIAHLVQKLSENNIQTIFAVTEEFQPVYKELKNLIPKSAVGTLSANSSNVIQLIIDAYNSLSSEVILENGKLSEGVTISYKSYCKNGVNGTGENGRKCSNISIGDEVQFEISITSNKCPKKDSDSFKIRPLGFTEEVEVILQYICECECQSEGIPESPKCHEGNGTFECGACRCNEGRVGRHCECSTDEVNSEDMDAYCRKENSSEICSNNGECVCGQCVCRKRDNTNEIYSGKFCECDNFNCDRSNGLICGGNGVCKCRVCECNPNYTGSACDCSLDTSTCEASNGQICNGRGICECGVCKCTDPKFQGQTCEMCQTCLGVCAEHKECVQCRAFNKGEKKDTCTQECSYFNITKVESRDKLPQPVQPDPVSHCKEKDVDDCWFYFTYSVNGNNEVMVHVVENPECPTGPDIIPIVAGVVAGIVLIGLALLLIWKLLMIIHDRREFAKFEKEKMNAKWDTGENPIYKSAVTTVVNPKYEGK
The data set can be described thus: Panning and binding of peptide-displaying phage on α5β1 integrin. The note with it: phage-displayed sequence. From the text: In addition, most of the phage-binding activity in the αvβ3 preparation was captured into microliter wells coated with antibodies against the αv or β3 subunits as described previously (Koivunen et al., J. Biol. Chem., 268:20205–10 (1993). The αIIbβ3 integrin was isolated from outdated platelets (Pytela et al., Science, 231:1559–1562 (1986)).
Peptide libraries were constructed in fuse 5 vector (Scott and Smith, Science 249:386–390 (1990)) as described previously (Koivunen et al., J. Cell Biol., 124:373–380 (1994). The CX5C, CX6C, CX7C and CX9 [SEQ ID NOs:39–42, respectively] libraries were prepared using synthetic oligonucleotides containing core sequences TGT(NNK)5TGT, TGT(NNK)6TGT, TGT(NNK)7TGT and TGT(NNK)9 [SEQ ID NOS:43–46, respectively] (N=equal molar mixture of A, C, G, T; K=G or T), respectively. The oligonucleotides were made double-stranded by PCR amplification with 5 cycles, purified and ligated to the N-terminus of pIII gene of fuse 5 vector. The CX5C, CX6C, CX7C and CX9 [SEQ ID NOS:39–42, respectively] vectors were transfected into MC1061 cells using 16, 60, 263 and 250 electroporations, respectively. Bacteria were cultured for 24 hours in the presence of 20 μg/ml of tetracycline, and phage were collected from the supernatant by precipitation twice with polyethylene glycol. The phage pellets were dissolved at approximately 10^13 transducing units (TU)/ml in TBS buffer containing 0.02% NaN3 and stored at 4° C. The yields of the CX5C, CX6C, CX7C and CX9 [SEQ ID NOS:39–42, respectively] primary libraries were 3.5×10^8, 1.1×10^9, 4.5×10^5 and 3.5×10^8 clones, respectively. […]
Binding of individual cloned phage to integrins was studied in microliter wells as described in Koivunen et al., J. Cell. […] Phage that were bound were determined by their ability to infect F-pilus positive K91kan bacteria. Bacteria were grown overnight in microliter wells in the presence of tetracycline and the absorbance indicative of bacterial growth was read at 600 nm with an ELISA plate reader.

For data set [4], the system named is αvβ1 integrin. As to the kind of experiment: Inhibition of αvβ1-mediated cell attachment to fibronectin. The format is cell-based. To be noted: less active, FIG. 6.
Source text: as §1, with “The vitronectin-binding integrins αvβ1 and αvβ3 were assayed using the cell line HT-29 and IMR-90, respectively (Koivunen et al., J. Biol. Chem. 268: 20205–20210 (1993)).” left out
Cell lines expressing fibronectin-binding integrins were used to determine peptide activities against these integrins in the cell attachment assay described by Ruoslahti et al., Meth. […] Bound cells were quantitated by staining with 0.1% amido black. […]

Bridge positions count the residues as written; N and C are the ends. Ends that are not written are not given here. Peptide text beside a SMILES is read from it.

Sequence of αvβ5 integrin (P06756 31-889 limits assumed): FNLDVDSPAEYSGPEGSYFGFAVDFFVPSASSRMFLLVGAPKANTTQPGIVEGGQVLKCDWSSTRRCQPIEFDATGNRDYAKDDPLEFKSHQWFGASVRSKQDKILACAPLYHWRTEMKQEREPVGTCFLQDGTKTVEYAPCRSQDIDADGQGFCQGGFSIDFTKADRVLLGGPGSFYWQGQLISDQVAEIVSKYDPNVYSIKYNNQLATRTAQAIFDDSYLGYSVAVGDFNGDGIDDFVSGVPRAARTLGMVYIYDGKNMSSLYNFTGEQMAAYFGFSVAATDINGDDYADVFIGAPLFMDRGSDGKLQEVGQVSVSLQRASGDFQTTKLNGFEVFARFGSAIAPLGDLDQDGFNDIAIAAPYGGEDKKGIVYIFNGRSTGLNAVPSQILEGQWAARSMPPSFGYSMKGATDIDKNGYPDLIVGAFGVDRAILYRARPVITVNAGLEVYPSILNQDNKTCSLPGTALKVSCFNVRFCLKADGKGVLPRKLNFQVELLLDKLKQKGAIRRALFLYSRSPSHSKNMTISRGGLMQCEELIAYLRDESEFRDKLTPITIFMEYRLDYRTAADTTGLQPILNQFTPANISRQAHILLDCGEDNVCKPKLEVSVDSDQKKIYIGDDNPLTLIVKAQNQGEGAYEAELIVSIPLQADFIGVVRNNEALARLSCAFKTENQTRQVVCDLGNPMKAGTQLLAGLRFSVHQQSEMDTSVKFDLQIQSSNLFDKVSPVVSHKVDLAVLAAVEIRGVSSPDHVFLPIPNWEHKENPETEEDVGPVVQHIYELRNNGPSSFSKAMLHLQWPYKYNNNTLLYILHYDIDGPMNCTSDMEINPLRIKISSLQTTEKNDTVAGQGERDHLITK
Sequence of αvβ5 integrin (P06756 891-1048 partner limits assumed): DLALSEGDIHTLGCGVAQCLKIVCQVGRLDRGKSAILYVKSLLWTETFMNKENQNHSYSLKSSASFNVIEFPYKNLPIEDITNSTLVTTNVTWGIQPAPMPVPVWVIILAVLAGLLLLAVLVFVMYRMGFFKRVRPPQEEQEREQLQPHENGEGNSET
Sequence of αvβ5 integrin (P18084 24-799): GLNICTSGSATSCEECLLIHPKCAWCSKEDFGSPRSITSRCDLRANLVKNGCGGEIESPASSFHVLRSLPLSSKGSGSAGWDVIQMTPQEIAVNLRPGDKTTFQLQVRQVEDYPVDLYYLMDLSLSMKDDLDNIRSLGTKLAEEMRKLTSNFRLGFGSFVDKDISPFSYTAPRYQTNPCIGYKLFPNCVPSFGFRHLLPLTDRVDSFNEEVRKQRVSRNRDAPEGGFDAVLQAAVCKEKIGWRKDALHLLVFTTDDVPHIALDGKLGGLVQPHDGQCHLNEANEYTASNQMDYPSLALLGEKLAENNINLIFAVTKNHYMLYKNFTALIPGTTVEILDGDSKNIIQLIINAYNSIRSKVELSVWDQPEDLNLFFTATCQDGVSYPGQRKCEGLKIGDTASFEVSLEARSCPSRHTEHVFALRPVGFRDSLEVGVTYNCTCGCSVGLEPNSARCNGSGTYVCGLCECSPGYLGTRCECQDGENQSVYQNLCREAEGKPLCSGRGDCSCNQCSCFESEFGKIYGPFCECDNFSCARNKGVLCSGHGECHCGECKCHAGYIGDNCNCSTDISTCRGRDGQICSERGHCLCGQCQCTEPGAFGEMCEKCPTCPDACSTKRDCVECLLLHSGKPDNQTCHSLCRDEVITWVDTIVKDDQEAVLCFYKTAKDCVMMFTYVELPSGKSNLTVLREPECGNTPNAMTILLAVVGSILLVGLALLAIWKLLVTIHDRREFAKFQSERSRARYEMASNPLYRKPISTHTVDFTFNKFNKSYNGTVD

With `C[C@H](N)C(=O)N[C@H]1CSSC[C@@H](C(=O)NCC(=O)O)NC(=O)[C@H](Cc2ccccc2)NC(=O)[C@@H]2CSSC[C@H](NC(=O)[C@H](CC(=O)O)NC1=O)C(=O)N[C@@H](CCCNC(=N)N)C(=O)NCC(=O)N[C@@H](CC(=O)O)C(=O)N2` (H-ACDCRGDCFCG-OH; disulfide 2-10, 4-8), the “affinity relative to *CRGDC* in HT-29 attachment to vitronectin” value in data set [1] (HT-29 cells, higher than *CRGDC*) is reported as 40 fold. In data set [1] (HT-29 cells, higher than A*CRGDGWC*G), the “affinity relative to A*CRGDGWC*G in HT-29 attachment to vitronectin” value was determined as 40 fold. Moreover, the “enhancement in activity relative to *CRGDC* in UCLA-P3 cells” value in data set [1] (UCLA-P3 cells) is 20 fold.
“A*CPSRLDSPC*G (ACPSRLDSPCG; disulfide 2-10 (inferred))”: the “precipitation of the peptide” value in data set [2] is “tendency of the peptide precipitate at neutral pH”.
Regarding GACRRETAWACGA, in data set [3], the “binding of peptide-displaying phage to the α5β1 integrin” value is given as “selectively bind”. Also, in data set [4], the “activity against αvβ1 relative to CELRGDGWC” value was “about 40 ×” and the “activity against αvβ1 relative to the cyclic RGD peptide” value was “greater than 100 ×”. Moreover, the “activity against cell attachment to vitronectin” value in data set [1] (all concentrations tested, FIG. 7 (sentence prints αvβ1)) is given as “essentially devoid of activity”.

(Values after patent US7067619B2, “Integrin-binding peptides” (La Jolla Cancer Research Foundation, priority 1993, dated 2006).)
